Data on seven compounds can be found in the supplement of paper PMC11061612.

Test in all cases: combination Emax (second highest fraction inhibited in the dose matrix, 72 h); higher = more inhibition; extreme values may be limits of the assay
Assay [1] relates to RERF-GC-1B (Gastric Carcinoma). Put shortly: (§1)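 Bliss excess equals the observed combination effect minus the expected value EA + EB − EA·EB, where EA and EB are the effects of each agent alone. Combination Emax is the second-highest inhibition within the matrix. Inhibition was scaled from CellTiter-Glo 2.0 luminescence, with 0 set by vehicle wells and 1 by blank wells, after 72 hours of two-drug dosing of cells plated in 1536-well plates.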

Assay [2] relates to OVMIU (Ovarian Carcinoma). Put shortly:
as §1

Assay [3] relates to 23132-87 (Gastric Carcinoma). Put shortly: as §1
For assay [4], the system named is GP5d (Colorectal Carcinoma). Put shortly: as §1
For assay [5], the system named is SHP-77 (Small Cell Lung Carcinoma). Put shortly:
as §1

In another assay the test system is IST-MES1 (Mesothelioma). Put shortly:
as §1

In assay [6] the test system is HCT-15 (Colorectal Carcinoma). Put shortly:
as §1

The next assay concerns WM793B (Melanoma). Put shortly: as §1
The subject of another assay is A2058 (Melanoma). Put shortly: as §1
In assay [7] the test system is SK-PN-DW (Other Solid Carcinomas). Put shortly:
as §1

In assay [8] the test system is COLO-680N (Esophageal Squamous Cell Carcinoma). Put shortly:
as §1

Assay [9] concerns NCI-H23 (Lung Adenocarcinoma). Put shortly:
as §1

For a further assay, the system named is GB-1 (Glioblastoma). Put shortly: as §1
In assay [10] the test system is LK-2 (Squamous Cell Lung Carcinoma). Put shortly:
as §1

The test system of assay [11] is RERF-LC-Sq1 (Squamous Cell Lung Carcinoma). Put shortly: as §1
For assay [12], the system named is MKN45 (Gastric Carcinoma). Put shortly:
as §1

For assay [13], the system named is LB996-RCC (Kidney Carcinoma). Put shortly:
as §1

In assay [14] the test system is CAL-120 (Breast Carcinoma). Put shortly: as §1
A further assay has as its system WM278 (Melanoma). Put shortly: as §1
Assay [15] deals with PSN1 (Pancreatic Carcinoma). Put shortly: as §1

In the case of `Cc1c2c(nn1C)CSCc1cc(n(C)n1)CSc1cc(c3ccccc3c1)OCCCc1c(C(=O)O)n(C)c3c-2c(Cl)ccc13` [AZD5991] + CCN(CCO)CCCOc1ccc2c(Nc3cc(CC(=O)Nc4cccc(F)c4)[nH]n3)ncnc2c1 [AZD2811] (first compound max 1 µM, 7x7, partner max 1 µM), the “combination Emax” value in assay [1] came out at 0.998; in assay [2], 0.283; in assay [3] it was 0.924; in assay [4], 0.956; in assay [5], 0.289; in the assay with IST-MES1 (Mesothelioma), 0.266. The “combination Emax” value was 0.263 in assay [6]; 0.374 in the assay with WM793B (Melanoma); 0.919 in the assay on A2058 (Melanoma); 0.985 in assay [7]; 0.211 in [8]; 0.926 in [9]. The “combination Emax” value in the assay on GB-1 (Glioblastoma) is 0.264; in assay [10] it was 0.962; in assay [11] it was 0.622; in [12], 0.408; in [13] it was 0.405; in assay [14], 0.21. Moreover, the results for the “combination Emax” value (in the assay with WM278 (Melanoma); in assay [15]) were 0.396 and 0.319, respectively.
Turning to `Cc1c2c(nn1C)CSCc1cc(n(C)n1)CSc1cc(c3ccccc3c1)OCCCc1c(C(=O)O)n(C)c3c-2c(Cl)ccc13` [AZD5991] + CN(C)CCCOc1ccc(-c2ccc3ncc4c(c3c2)n(C2CCOCC2)c(=O)n4C)cn1 [AZD0156] (first compound max 1 µM, 7x7, partner max 1 µM), the “combination Emax” value in [1] turned out to be 0.978; in assay [2] it was 0.359; in [3], 0.934; in assay [4] it was 0.817; in assay [5], 0.284; with IST-MES1 (Mesothelioma), 0.191. Besides, the “combination Emax” value in assay [6] came to 0.197; in the assay on WM793B (Melanoma), 0.305; in the assay with A2058 (Melanoma), 0.465; in [7], 0.835; in [8] it was 0.219; in assay [9], 0.913. For the same compound, the “combination Emax” value with GB-1 (Glioblastoma) is 0.186; in assay [10] it was 0.183; in [11], 0.364; in assay [12] it was 0.356; in assay [13], 0.265; in [14], 0.171. For the same compound, the “combination Emax” value is 0.248 in the assay with WM278 (Melanoma) and 0.397 in assay [15].
Regarding `Cc1c2c(nn1C)CSCc1cc(n(C)n1)CSc1cc(c3ccccc3c1)OCCCc1c(C(=O)O)n(C)c3c-2c(Cl)ccc13` [AZD5991] + C[C@@H]1COCCN1C2=NC(=NC(=C2)C3(CC3)[S@](=N)(=O)C)C4=C5C=CNC5=NC=C4 [AZD6738] (first compound max 1 µM, 7x7, partner max 10 µM), the “combination Emax” value in assay [1] was found to be 1; in assay [2], 0.483; in [3], 0.979; in assay [4] it was 0.984; in assay [5], 0.594; with IST-MES1 (Mesothelioma), 0.285. Further, the “combination Emax” value in assay [6] is 0.733; in the assay on WM793B (Melanoma), 0.834; in the assay on A2058 (Melanoma) it was 0.925; in [7], 0.947; in [8] it was 0.324; in assay [9] it was 0.977. Besides, the “combination Emax” value in the assay on GB-1 (Glioblastoma) was 0.489; in assay [10] it was 0.357; in [11], 0.853; in assay [12], 0.807; in assay [13] it was 0.752; in [14], 0.413. Further, the “combination Emax” value in the assay on WM278 (Melanoma) worked out at 0.562; in [15], 0.488.
For `Cc1c2c(nn1C)CSCc1cc(n(C)n1)CSc1cc(c3ccccc3c1)OCCCc1c(C(=O)O)n(C)c3c-2c(Cl)ccc13` [AZD5991] + C[C@@H](Nc1cc(F)cc(F)c1)c1cc(C(=O)N(C)C)cc2c(=O)cc(N3CCOCC3)oc12 [AZD8186] (first compound max 1 µM, 7x7, partner max 3 µM), the “combination Emax” value in assay [1] worked out at 0.98; in [2], 0.447; in assay [3], 0.867; in [4], 0.817; in assay [5], 0.289; in the assay on IST-MES1 (Mesothelioma), 0.241. In addition, the “combination Emax” value in [6] stood at 0.194; in the assay with WM793B (Melanoma), 0.419; with A2058 (Melanoma), 0.821; in assay [7], 0.911; in [8], 0.215; in assay [9] it was 0.896. For the same compound, the “combination Emax” value in the assay on GB-1 (Glioblastoma) was found to be 0.219; in assay [10], 0.196; in assay [11] it was 0.228; in assay [12], 0.39; in assay [13], 0.373; in assay [14], 0.218. In addition, the “combination Emax” value was determined as 0.365 with WM278 (Melanoma) and 0.375 in assay [15].
With `Cc1c2c(nn1C)CSCc1cc(n(C)n1)CSc1cc(c3ccccc3c1)OCCCc1c(C(=O)O)n(C)c3c-2c(Cl)ccc13` [AZD5991] + Cc1cc2ncnn2cc1Nc1ncc2c(n1)n(C1CCOCC1)c(=O)n2C [AZD7648] (first compound max 1 µM, 7x7, partner max 10 µM), the “combination Emax” value is 0.987 in assay [1]; 0.547 in [2]; 0.887 in assay [3]; 0.824 in assay [4]; 0.263 in assay [5]; 0.249 with IST-MES1 (Mesothelioma). For the same compound, the “combination Emax” value stood at 0.251 in assay [6]; 0.32 in the assay on WM793B (Melanoma); 0.452 in the assay on A2058 (Melanoma); 0.881 in assay [7]; 0.19 in [8]; 0.934 in [9]. In addition, the “combination Emax” value with GB-1 (Glioblastoma) is 0.264; in [10] it was 0.198; in [11], 0.37; in [12], 0.504; in [13], 0.363; in assay [14], 0.252. Also, the “combination Emax” value in the assay with WM278 (Melanoma) came to 0.285; in assay [15] it was 0.406.
Consider `Cc1c2c(nn1C)CSCc1cc(n(C)n1)CSc1cc(c3ccccc3c1)OCCCc1c(C(=O)O)n(C)c3c-2c(Cl)ccc13` [AZD5991] + Cn1cnc2c(F)c(Nc3ccc(Br)cc3Cl)c(C(=O)NOCCO)cc21 [Selumetinib] (first compound max 1 µM, 7x7, partner max 3 µM), for which the “combination Emax” value in [1] came out at 0.998; in assay [2], 0.383; in [3] it was 0.903; in [4], 1; in assay [5] it was 0.598; in the assay on IST-MES1 (Mesothelioma) it was 0.257. Further, the “combination Emax” value was determined as 0.301 in assay [6]; 0.454 in the assay on WM793B (Melanoma); 0.991 in the assay with A2058 (Melanoma); 0.887 in assay [7]; 0.236 in assay [8]; 0.934 in assay [9]. Also, the “combination Emax” value came out at 0.174 in the assay with GB-1 (Glioblastoma); 0.203 in assay [10]; 0.479 in assay [11]; 0.508 in [12]; 0.255 in assay [13]; 0.167 in assay [14]. The “combination Emax” value stood at 0.648 in the assay with WM278 (Melanoma) and 0.67 in assay [15].
For the compound `C[C@@H]1COCCN1c1cc(C2([S@](C)(=N)=O)CC2)nc(-c2ccnc3[nH]ccc23)n1` [AZD6738] + O=C(c1cc(Cc2n[nH]c(=O)c3ccccc23)ccc1F)N1CCN(C(=O)C2CC2)CC1 [Olaparib] (first compound max 10 µM, 7x7, partner max 10 µM), the “combination Emax” value in [1] was 0.442; in [2], 0.429; in [3], 0.768; in [4], 0.823; in assay [5], 0.754; in the assay with IST-MES1 (Mesothelioma), 0.353. The “combination Emax” value in assay [6] amounted to 0.832; with WM793B (Melanoma), 0.822; with A2058 (Melanoma), 0.205; in assay [7], 0.947; in [8], 0.392; in assay [9], 0.753. Further, the “combination Emax” value with GB-1 (Glioblastoma) worked out at 0.478; in assay [10], 0.485; in [11] it was 0.75; in assay [12], 0.763; in assay [13], 0.675; in assay [14], 0.386. The “combination Emax” value in the assay with WM278 (Melanoma) is 0.233; in [15], 0.5.
